The text below walks through data of patent EP1490333B1, “NEW ATORVASTATIN SALTS AND PHARMACEUTICAL COMPOSITIONS CONTAINING THEM” (Richter Gedeon Nyrt., priority 2002, dated 2003).

Data set [1] deals with Caco-2 human epithelial cells. Particulars: for absorption of atorvastatin: microtablets of the three basic salts placed on the mono layers, compared with each other, Figure 1.
Procedure: The essence of the method is, that microtablets are pressed from the drug substances to be examined without adding auxiliaries. The microtablets are made under the same conditions with the same pressing force, therefor the rate of penetration through cell-layer is determined by the intrinsic features of the examined substances.
In the model the absorption of atorvastatin through human epithelial (Caco-2) mono cell-layer was measured in such a way, that the microtablets prepared from the test compounds were placed on the mono cell-layers in the vessels containing physiological saline, then the time dependent amount of the test substance, which passed through the mono cell-layer was determined from the saline solution of the other side of the mono cell-layer by chromatography.
During the experiments 4 µmol base equivalent amounts were placed on the mono cell-layers from the microtablets.
During the experiments the reference compounds were placed on the mono cell-layer (luminal side, which in vivo equals the inner side of the intestine) in solution, the amount of the test substance, which passed through the mono cell-layer (abluminal side, which in vivo equals the blood circulation) was determined by chromatography, then the absorption coefficient characteristic for the absorption of the compounds was calculated (the English abbreviation used in the literature: Papp value).
At the end of the absorption experiments the intactness of the epithelial mono cell-layers was microscopically checked after tainting with toluidine blue. The amount of the test and reference compounds in the samples was determined by HPLC.
Data set [2] is described as follows: Specific surface of the salts. Type of data set: physicochemical.
The conditions of data set [3]: in vivo; cited from earlier work.

Counter-ions that a name gives are not always drawn.

Consider `CC(C)c1c(C(=O)Nc2ccccc2)c(-c2ccccc2)c(-c2ccc(F)cc2)n1CCC(O)CC(O)CC(=O)O.N=C(N)NCCCC(N)C(=O)O` [L-arginine salt, Atorvastatin L-arginine salt], for which the absorption of atorvastatin result in data set [1] was “no difference”.
In the case of `CC(C)c1c(C(=O)Nc2ccccc2)c(-c2ccccc2)c(-c2ccc(F)cc2)n1CC[C@@H](O)C[C@@H](O)CC(=O)O` [atorvastatin hemi-calcium salt, reference compound], in data set [2], the specific surface amounted to 8.0 m^2/g.
As for `CC(C)c1c(C(=O)Nc2ccccc2)c(-c2ccccc2)c(-c2ccc(F)cc2)n1CC[C@@H](O)C[C@@H](O)CC(=O)O` [atorvastatin hemi-calcium salt, (3R,5R)-7-[3-phenyl-4-[(phenylamino)carbonyl]-2-(4-fluorophenyl)-5-(1-methyl-ethyl)-pyrrol-1-yl]-3,5-dihydroxy-heptanoic acid], the “part of the applied dose absorbed” value in data set [3] is given as “about 30%”.
Consider `CC(C)c1c(C(=O)Nc2ccccc2)c(-c2ccccc2)c(-c2ccc(F)cc2)n1CC[C@@H](O)C[C@@H](O)CC(=O)O.NCCCC[C@H](N)C(=O)O` [atorvastatin L-lysine salt], for which, in data set [2], the specific surface is reported as 1.1 m^2/g. For the same molecule, in data set [1] (compared with polymorph I (crystal form I) of hemi-calcium salt), the “absorption (penetration) of atorvastatin in Caco-2 model” value was “significantly better”. Further, in data set [1], the absorption of atorvastatin entry was “no difference”. Also, in data set [1] (microtablets, compared with microtablets of polymorph I of hemi-calcium salt, Figure 2), the “appearance of atorvastatin on the abluminal side of the mono cell-layers” value was “significantly faster”.
